{"source": "patent US20190313678A1", "about": "“SUGAR-DIPEPTIDE CONJUGATES AS FLAVOR MOLECULES” (NESTEC S.A., priority 2016, published 2019)", "key": {"[1]": {"details": "cited from earlier work; for orosensation effect of subthreshold concentrations: together with L-glutamic acid and sodium and/or potassium ions, Dunkel and Hofmann 2009"}, "[2]": {"assay": "Sensory evaluation of the compounds in a chicken soup base", "details": "for flavor impact in chicken soup base versus reference soup: ANOVA/LSD, alpha 5%; for Sensory inpact on chicken soup: chicken soup base, compounds added at 2 and 0.25 g/L, 12 panelists", "description": "Chicken soups were prepared by dissolving 6 g chicken base powder (detailed recipe shown in Table 1), 1 g monosodium glutamate and 1 g of sodium chloride in 500 mL hot water. 1-Deoxy-D-fructosyl-N-ornithyl-β-alanine, N-ornithyl-β-alanine, 1-deoxy-D-fructosyl-N-ornithine or alternatively 1-deoxy-2-pentulofuranos-1-yl-Ornithine (Rib-Orn) were then added separately at 2 and 0.25 g/L final concentrations.\nThe sensory evaluation was carried out by 12 panelists, previously screened for their sensory abilities. The panelists assessed a maximum of 6 samples per session. They had Vittel water and crackers as mouth cleansers. In all the cases, the panelists were instructed to evaluate the samples for the following attributes: overall flavor persistency, meaty, grilled/popcorn-like, bread-like, sweet, bitter, and salty. The samples were coded with random 3-digit numbers according to a balanced presentation design, heated at approximately 65° C. and then presented in 40 ml brown plastic containers and under red light to minimize appearance bias (the serving was approximately 25 ml per sample).\nThe following statistical tests were used to analyze the sensory raw data: First, the Analysis of Variance (ANOVA) with two factors, products (fixed factor) and subject (random factor) was computed in order to determine if there was any difference among samples. The limit of significance (alpha risk) was set at 5%. […] The limit of significance (alpha risk) was set at 5%."}, "[3]": {"assay": "Tomato soups with added compound (seasoning compositions)", "details": "2 g/L in tomato soup", "description": "Tomato soups can be prepared by dissolving 6 g tomato base powder as can be obtained in the commerce in 500 mL hot water. 1-deoxy-D-fructosyl-N-ornithine or alternatively 1-Deoxy-D-fructosyl-N-ornithyl-β-alanine can be added at a concentration of 2 g/L to the soups in order to improve their taste and flavor profile."}, "[4]": {"assay": "Sensory evaluation of the compounds in water", "details": "2 g/L in water; 12 panelists", "description": "The compounds ornithine, ornithyl-β-alanine, 1-deoxy-D-fructosyl-N-ornithine, 1-deoxy-D-fructosyl-N-ornithyl-β-alanine and 1-deoxy-2-pentulofuranos-1-yl-Ornithine (Rib-Orn) were each dissolved and diluted in water in a final concentration of 2 g/L. The solutions were then evaluated by 12 panelists, which were previously screened and selected for their sensory abilities."}, "[5]": {"assay": "Comparison of soup bases containing Fru-orn versus the mixture of glucose and ornithine", "details": "2 g/L (6.82 mmol/L), 6 panelists", "description": "A first soup was prepared by adding 2 g/L (6.82 mmol/L) 1-deoxy-D-fructosyl-N-ornithine in the soup base described above. A second soup was prepared by adding same molar concentration of glucose and ornithine. The solutions were then evaluated by 6 panelists following the same procedure than described above."}}, "note": "“Also recorded” adds a separate entry of the source.", "data": [{"smiles": "NCCC(=O)N[C@@H](Cc1cnc[nH]1)C(=O)O", "note": "[L-carnosine]", "values": [{"measurement": "orosensation effect of subthreshold concentrations", "setting": "[1]", "value": "enhance the typical thick-sour orosensation and white-meaty character"}]}, {"smiles": "N[C@@H](CCCNCC1(O)OCC(O)C(O)C1O)C(=O)O", "note": "(stereo partly drawn) [Fru-Orn, 1-deoxy-D-fructosyl-N-ornithine]", "values": [{"measurement": "flavor impact in chicken soup base versus reference soup", "setting": "[2]; 0.25 g/L", "value": "bread flavors were significantly perceived"}, {"measurement": "flavor impact in chicken soup base versus reference soup", "setting": "[2]; 2 g/L", "value": "grilled meat flavor and saltiness were significantly enhanced"}, {"measurement": "Sensory inpact on chicken soup", "setting": "[2]", "value": "grilled/popcorn,; also recorded: bread, saltiness"}, {"measurement": "grilled savory flavor of tomato soup versus reference soup", "setting": "[3]", "value": "more pronounced grilled savory flavor"}, {"measurement": "perceived saltiness of tomato soup versus reference soup", "setting": "[3]", "value": "slightly more salty"}, {"measurement": "Flavour property in water (2 g/L)", "setting": "[4]", "value": "salty"}, {"measurement": "saltiness versus soup with same molar concentration of glucose and ornithine", "setting": "[5]; tasted with nose-clip", "value": "more salty"}, {"measurement": "chicken flavor versus soup with same molar concentration of glucose and ornithine", "setting": "[5]; tasted without nose-clip", "value": "greater chicken flavor"}]}, {"smiles": "NCCC[C@H](N)C(=O)O", "note": "[Orn, L-ornithine]", "values": [{"measurement": "off-taste inhibition in combination with bitter branched chain amino acids", "setting": "[1]; J. P. Ley 2008", "value": "off-taste inhibitor"}]}, {"smiles": "NCCC(=O)NCC(=O)O", "note": "[β-alanylglycine]", "values": [{"measurement": "orosensation effect of subthreshold concentrations", "setting": "[1]", "value": "enhance the typical thick-sour orosensation and white-meaty character"}]}, {"smiles": "Cn1cncc1C[C@H](NC(=O)CCN)C(=O)O", "note": "[L-anserine]", "values": [{"measurement": "orosensation effect of subthreshold concentrations", "setting": "[1]", "value": "enhance the typical thick-sour orosensation and white-meaty character"}]}, {"smiles": "NCCC[C@H](N)C(=O)NCCC(=O)O", "note": "[Orn-ala, N-ornithyl-β-alanine, reference compound]", "values": [{"measurement": "flavor impact in chicken soup base versus reference soup", "setting": "[2]; 2 g/L", "value": "no statistically significant differences"}, {"measurement": "Sensory inpact on chicken soup", "setting": "[2]", "value": "none"}, {"measurement": "Flavour property in water (2 g/L)", "setting": "[4]", "value": "astringent"}, {"measurement": "bitter masking effects against potassium salts", "setting": "[1]; J. P. Ley 2008", "value": "bitter masking effects"}]}, {"smiles": "N[C@@H](CCCNCC1(O)OC[C@@H](O)[C@@H](O)[C@@H]1O)C(=O)NCCC(=O)O", "note": "(stereo partly drawn) [Fru-Orn-βala, 1-deoxy-D-fructosyl-N-ornithyl-β-alanine]", "values": [{"measurement": "grilled and bread attributes of chicken soup versus soup with orn-ala", "setting": "[2]; 2 g/L each", "value": "enhanced significantly; also recorded: increases the desired grilled meat and bread flavor note"}, {"measurement": "overall flavor persistency of chicken soup versus soup with orn-ala", "setting": "[2]; 2 g/L each", "value": "significantly different"}, {"measurement": "perceived bitterness of chicken soup versus soup with orn-ala", "setting": "[2]; 2 g/L each", "value": "significantly decreasing; also recorded: reducing overall bitterness"}, {"measurement": "Sensory inpact on chicken soup", "setting": "[2]", "value": "grilled/popcorn,; also recorded: bread, saltiness"}, {"measurement": "grilled savory flavor of tomato soup versus reference soup", "setting": "[3]", "value": "more pronounced grilled savory flavor"}, {"measurement": "perceived saltiness of tomato soup versus reference soup", "setting": "[3]", "value": "slightly more salty"}, {"measurement": "Flavour property in water (2 g/L)", "setting": "[4]", "value": "sweet, bread"}]}, {"smiles": "N[C@@H](CCCNCC1(O)OC[C@@H](O)[C@H]1O)C(=O)O", "note": "(stereo partly shown) [Rib-Orn, 1-deoxy-2-pentulofuranos-1-yl-ornithine]", "values": [{"measurement": "flavor impact in chicken soup base versus reference soup", "setting": "[2]; 0.25 g/L", "value": "both baked bread flavor and umami taste were significantly enhanced"}, {"measurement": "Sensory inpact on chicken soup", "setting": "[2]", "value": "Grilled/bread,; also recorded: umami"}, {"measurement": "Flavour property in water (2 g/L)", "setting": "[4]", "value": "astringent, sour, metallic and slightly sweet; also recorded: Astringent,"}]}, {"smiles": "NCCC[C@H](N)C(=O)NCCS(=O)(=O)O", "note": "[L-ornithinyltaurine]", "values": [{"measurement": "bitter masking effects against potassium salts", "setting": "[1]; J. P. Ley 2008", "value": "bitter masking effects"}, {"measurement": "taste produced", "setting": "[1]; Tamura et al. 1989", "value": "salty taste"}]}]}
